Target: T1, HCV NS3 helicase NS3h_1b(con1) (Hepatitis C virus genotype 1b, UniProt Q9WMX2)
T1 construct: truncated C-terminally His-tagged NS3 proteins lacking the N-terminal protease, called NS3h; His-tag (C); made in house
Assay: MBHA screen of NCI mechanistic set library at 20 μM (percent inhibition, compound interference)
Format: biochemical
Conditions: compounds at 20 μM; for Inh. (%) (Inhibition): calculated from Equation 1
In short: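 Molecular beacon-based DNA unwinding assay; compounds screened at 20 μM in triplicate, with DMSO-only negative and 500 nM dT20 positive controls. Fluorescence (ex 643/em 670 nm) was read before and 30 min after adding ATP to 1 mM. Percent inhibition came from the change relative to DMSO controls; interference from pre-ATP fluorescence versus DMSO controls.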

[1] = MBHA with DNA substrate, assay interference calculated with Equation 2
[2] = assay interference calculated with Equation 2 (fluorescence vs DMSO-only controls before ATP)

T1 sequence (Q9WMX2 1192-1657): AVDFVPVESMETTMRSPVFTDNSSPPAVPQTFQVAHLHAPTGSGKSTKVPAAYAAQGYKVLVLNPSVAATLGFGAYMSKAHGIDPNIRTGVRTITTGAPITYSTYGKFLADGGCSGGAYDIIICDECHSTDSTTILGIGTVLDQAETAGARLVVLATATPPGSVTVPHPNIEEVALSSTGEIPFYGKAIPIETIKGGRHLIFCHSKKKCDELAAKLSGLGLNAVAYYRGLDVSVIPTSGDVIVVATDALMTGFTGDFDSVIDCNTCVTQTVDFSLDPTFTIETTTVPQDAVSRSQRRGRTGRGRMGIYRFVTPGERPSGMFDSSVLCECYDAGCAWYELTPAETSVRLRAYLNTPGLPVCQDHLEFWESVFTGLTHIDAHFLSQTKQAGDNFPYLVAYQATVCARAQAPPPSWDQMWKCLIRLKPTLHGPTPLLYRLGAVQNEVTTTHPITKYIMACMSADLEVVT

Int.* (Ratio) (Interference) [1] | Inh. (%) (Inhibition) (MBHA with DNA substrate) | Inh. (%) (Inhibition) (MBHA with a DNA substrate) | Int.* (Ratio) (Interference) [2] | Compound
1.04 | 17.2 | – | – | CC1(C)C2CCC1(CS(=O)(=O)O)C(=O)C2.CN1C(c2ccccc2)CC(=NO)CC1c1ccccc1 (stereo not drawn) [Compound 363744]
0.56 | 56.5 | – | – | CC[C@@]1(O)C[C@H](O[C@H]2C[C@H](N(C)C)[C@H](O[C@H]3C[C@H](O)[C@H](O[C@H]4CCC(=O)[C@H](C)O4)[C@H](C)O3)[C@H](C)O2)c2c(cc3c(c2O)C(=O)c2c(O)cccc2C3=O)[C@@H]1C(=O)OC [Compound 208734]
0.90 | 89.2 | – | – | O=S(=O)(O)c1cc(N=Nc2cc(S(=O)(=O)O)c3ccccc3c2O)ccc1/C=C/c1ccc(N=Nc2cc(S(=O)(=O)O)c3ccccc3c2O)cc1S(=O)(=O)O.[Na+] [Compound 34931]
– | – | −29.0 | 1.00 | COc1ccc(/C=C2\CCCc3ccccc3C2=O)cc1 [Compound 687667]
1.10 | 2.5 | – | – | Cc1c(Cl)cccc1NC(=O)/C=C/c1ccccc1 [Compound 191392]
0.96 | 17.1 | – | – | COc1ccccc1[S+]([O-])Nc1ccccc1 (stereo not drawn) [Compound 676561]
0.93 | 5.9 | – | – | Oc1[nH]c2ccccc2c1N=Nc1c(F)c(F)c(F)c(F)c1F [Compound 116535]
0.93 | 17.1 | – | – | N#CCCN(CCC#N)c1ccc(C=Nc2ccc(F)cc2)cc1 [Compound 620277]
1.07 | −18.7 | – | – | Nc1ccc(N)c2c1C(=O)c1ccccc1C2=O [Compound 7833]
– | – | −5.5 | 0.78 | O=C1C=C(N2CCNCC2)C(=O)c2c(O)ccc(O)c21 [Compound 658144]
0.90 | −7.9 | – | – | COc1ccc(NC(=O)C(=O)/C=C(\O)c2ccccc2)cc1 [Compound 658709]
– | – | −22.9 | 1.07 | COC1=C(N)C(=O)c2nc(C)ccc2C1=O [Compound 132493]
– | – | −4.3 | 0.99 | COc1ccc(-c2cc(=O)c3c(O)cc(O)cc3o2)cc1OC [Compound 128305]
0.89 | 28.1 | – | – | COc1ccc(OC)c2nc3c(C(=O)NCCN(C)C)cccc3nc12.Cl [Compound 678917]
0.93 | −1.4 | – | – | Cc1cc(N(C)C)ccc1N=Nc1ccc2ncccc2c1 [Compound 680516]
– | – | −6.1 | 1.10 | Cl.NC(N)=N/N=C(\c1ccc(Cl)cc1)C1CC1 [Compound 74420]
0.98 | 3.4 | – | – | Nc1nc(SCc2ccccc2Cl)c2[nH]cnc2n1 [Compound 36826]
1.02 | −11.7 | – | – | COc1ccc2c(c1[N+](=O)[O-])CC[C@@H]1[C@@H]2CC[C@]2(C)C(=O)CC[C@@H]12 [Compound 321803]
1.01 | −2.4 | – | – | COc1ccc2nc3cc([N+](=O)[O-])ccc3c(NNc3ccccc3)c2c1 [Compound 689872]
1.05 | −11.2 | – | – | O=C(c1nc2ccc(Cl)cc2[nH]c1=O)C(O)c1ccc2c(c1)OCO2 (stereo not drawn) [Compound 642649]
0.96 | −17.5 | – | – | O=C(Nc1cccc(C(F)(F)F)c1)C(=O)C(C(=O)c1ccc(Cl)c(Cl)c1)C1OC(=O)c2ccccc21 (stereo not drawn) [Compound 644794]
0.86 | 12.3 | – | – | O=C(O)CC(NC(=O)CP(=O)(O)O)C(=O)O (stereo not drawn) [Compound 224131]

Int.* (Ratio) (Interference) [1] | Inh. (%) (Inhibition) (MBHA with DNA substrate) | Inh. (%) (Inhibition) (MBHA with a DNA substrate) | Int.* (Ratio) (Interference) [2] | Compound
– | – | −3.2 | 0.90 | COC(=O)C(=O)C(C(=O)C(=O)Nc1cc(C)ccc1C)c1nc2ccc(C(=O)c3ccccc3)cc2[nH]c1=O (stereo not drawn) [Compound 642040]
1.20 | −14.2 | – | – | CCSC(=O)N1c2ccc(OC)cc2C=CC1C#N (stereo not drawn) [Compound 165897]
1.11 | 24.7 | – | – | COc1ccc2oc(-c3ccncc3)cc(=O)c2c1 [Compound 54650]
0.92 | 27.4 | – | – | Cn1ncc2cc3c(Nc4ccc(Cl)cc4)cccc3nc21 [Compound 622732]
– | – | −4.2 | 1.11 | CC1=CC(C)(C)N=C2SC(c3ccc(N)cc3)=NN12 [Compound 640624]
– | – | 7.9 | 0.97 | NC(=Nc1nc(-c2ccccn2)cc2ccccc12)c1ccccn1 [Compound 637578]
1.01 | 5.1 | – | – | Cc1c(Cl)ccc2c1NC(=O)C2(O)C(C(=O)c1ccccc1)c1ccccc1 (stereo not drawn) [Compound 635321]
– | – | −22.3 | 1.01 | CC(C)CCCCCCCCCCCCC(=O)NCC(=O)N[C@@H]1[C@@H](O)[C@H](O)[C@@H](Nc2ncnc3nc[nH]c23)O[C@H]1[C@@H](O)CO [Compound 65104]
1.08 | 3.0 | – | – | COc1cc(NS(C)(=O)=O)ccc1Nc1c2ccccc2nc2ccccc12 [Compound 249992]
– | – | −25.4 | 1.00 | Cc1cc(O)c(/C=N/C(N)=S)c(=O)o1 [Compound 657449]
– | – | −3.8 | 0.97 | O=C1C=C(Nc2cccnc2)c2ccccc2C1=O [Compound 637729]
– | – | −6.8 | 1.02 | N[C@H](C(=O)O)[C@H]1ON=C(Cl)[C@H]1O [Compound 176324]
– | – | −5.7 | 0.99 | O=C1OC(c2ccco2)=N/C1=C\c1ccc(Cl)c(Cl)c1 [Compound 202000]
0.91 | −17.7 | – | – | C=C(C#N)C(=O)OCC(CC)CC.C=C(C#N)C(=O)OCC(CC)CC.CS(C)=O.CS(C)=O.Nc1c(N=Nc2ccc(-c3ccc(N=Nc4cc(S(=O)(=O)[O-])c5ccccc5c4N)cc3)cc2)cc(S(=O)(=O)[O-])c2ccccc12.[Pt+2] [Compound 615593]
1.08 | −8.4 | – | – | Clc1ccccc1C(c1ccccc1)(c1ccccc1)n1ccnc1 [Compound 257473]
1.01 | −2.4 | – | – | CCCC[S+]([O-])CC(CO)NC(=O)/C=C\c1c(C)[nH]c(=O)[nH]c1=O (stereo not drawn) [Compound 241509]
0.82 | 21.9 | – | – | O=c1oc2ccccc2cc1-c1ccc([N+](=O)[O-])cc1 [Compound 215989]
0.29 | 79.4 | – | – | COc1cc2cc3c4cc(OC)c(OC)cc4cc[n+]3c(C)c2cc1OC.O=C(O)CS(=O)(=O)[O-] [Compound 154890]
0.94 | 1.7 | – | – | CCOc1ccc(C(C)c2cc3c(cc2OC)OCO3)cc1 (stereo not drawn) [Compound 353648]
0.92 | 13.8 | – | – | COc1cc2c(c(OC)c1OC)-c1c(cc3c(c1OC)OCO3)CC(C)C(C)(O)C2OC(=O)c1ccccc1 (stereo not drawn) [Compound 330516]
0.28 | 31.8 | – | – | Cc1cc2cc3cc(C)c(N)cc3nc2cc1N [Compound 13973]
– | – | −30.3 | 1.07 | COc1ccc(C2=Nc3ccccc3SC(C)C2)cc1 (stereo not drawn) [Compound 636817]

Compound | Int.* (Ratio) (Interference) [1] | Inh. (%) (Inhibition) (MBHA with DNA substrate) | Inh. (%) (Inhibition) (MBHA with a DNA substrate) | Int.* (Ratio) (Interference) [2]
CC12CCC3C(CCC4CC(OC(=O)Cc5ccc(N(CCCl)CCCl)cc5)CCC43C)C1CCC(=O)N2 (stereo not drawn) [Compound 290205] | 1.03 | 34.9 | – | –
O=c1[nH]c2ccccc2n1C1CCN(CCCC(c2ccc(F)cc2)c2ccc(F)cc2)CC1 [Compound 170984] | 0.95 | 4.7 | – | –
C/C1=C\[C@H](C)C[C@H](C)OC(=O)CC(c2ccc(O)cc2)NC(=O)[C@@H](Cc2c(Br)[nH]c3ccccc23)N(C)C(=O)[C@H](C)NC(=O)[C@@H](C)C1 (stereo partly drawn) [Compound 613009] | – | – | −21.7 | 0.94
CC1OC(O[C@@H]2C=C3CC[C@@H]4[C@H](CC[C@]5(C)[C@@H](c6ccc(=O)oc6)CC[C@]45O)[C@@]3(C)CC2)C(O)C(O)C1O (stereo partly drawn) [Compound 7521] | 0.94 | 5.5 | – | –
C[C@@H]1CC[C@@]2(OC1)O[C@H]1CC3[C@@H]4CC=C5C[C@@H](O[C@@H]6O[C@H](CO)[C@@H](O[C@@H]7O[C@@H](C)[C@H](O[C@@H]8O[C@@H](C)[C@H](O)[C@@H](O)[C@@H]8O)[C@@H](O)[C@H]7O)[C@H](O)[C@H]6O[C@@H]6O[C@@H](C)C(O)[C@@H](O)[C@H]6O)CC[C@]5(C)[C@H]4CC[C@]3(C)[C@H]1[C@@H]2C (stereo partly drawn) [Compound 306864] | 0.86 | 1.3 | – | –
Cc1cc2c(C(C)C)c(O)c(O)c(C=O)c2c(O)c1-c1c(C)cc2c(C(C)C)c(O)c(O)c(C=O)c2c1O [Compound 56817] | 0.90 | −2.0 | – | –
[Cl][Cd][Cl] [Compound 51148] | 0.94 | 53.4 | – | –
